The test system of data set [1] is CTLs in the peripheral blood of patients with chronic HCV infection. The settings on record: cited from earlier work.
In data set [2] the test system is PBMCs of patients with chronic HCV infection. It is filed as cell-based, human. The settings on record: HCV core 178 stimulation; result in words.
Data set [3] relates to PBMCs from healthy HCV-seronegative blood donors. It is filed as cell-based, human. The settings on record: of 12 healthy donors.
Where [4] appears, read: after stimulation with HCV core 178.

As for LLALLSCLTV [HCV core 178], the “processing and presentation of the peptide” value in data set [1] is “processed and presented via the endogenous MHC class I pathway”. In data set [1] (peripheral blood), the “recognition by CTLs in patients with chronic HCV infection” value is reported as “target epitope for CTLs”. In addition, in data set [2], the “percentage of patients having cross-reactive CTLs compared with healthy donors” value is recorded as “comparable to that of healthy donors”. In data set [3] (10 μg/ml peptide, four replica cultures, 5 wk stimulation), the “blood donors with induced HCV core 178–specific CTLs” value is “nine”. In data set [3] (setting [4]), the “individuals recognizing HCV core 178 and CYP2A7 8–17” value is reported as “three”; the “individuals recognizing HCV core 178 only” value was “four”; the “individuals without CTL response” value was “three”.

(Values after publication PMC2195568 (The Journal of Experimental Medicine, 1999).)
